Patent publication US10603701B2, “Bioremediation of 1,4-dioxane and chlorinated aliphatic hydrocarbons by propanotrophic bacteria” (New Jersey Institute of Technology, priority 2018, dated 2020)

Experiments:
[1] = system: Mycobacterium sp. DT1; assay: Concurrent biodegradation of dioxane and TCE by DT1 in simulated microcosms; assay type: cell-based
Procedure: Concurrent biodegradation of dioxane and TCE by Mycobacterium sp. DT1. To evaluate the performance of DT1 in the removal of dioxane and TCE when both compounds are concurrently present, simulated microcosms were prepared with DT1 inoculum in BSM medium and dosed with dioxane and TCE. Propane was used as the primary substrate. […] After a short lag time (1 d), all the substrates, i.e. propane, dioxane, and TCE, were degraded synchronically. At the end of day 2, the initial 71.1, 20.2, and 2.15 mg/L of propane, dioxane, and TCE were degraded to 25.8, 11.3, and 1.59 mg/L, respectively. TCE was degraded to below the MDL of the GC-FID methods employed (i.e., 0.01 mg/L), and 85% of dioxane was removed from the simulated microcosm after 4 days incubation.

[2] = system: Azoarcus sp. DD4; assay: Propane and dioxane degradation by DD4 with or without ATU; assay type: cell-based; details: propane as primary substrate; dioxane degradation thus prolonged
Procedure: Allylthiourea (ATU) was reported to inhibit the particulate MOs involved in nitrification and alkane degradation in various bacteria. To exploit the effects ofprm-deletion on the propane and dioxane degradation and further to distinguish the soluble versus particulate MO category the DD4 dioxane degrader belongs to, the wild-type and prm-deleted DD4 strains were cultured with and without the presence of ATU using propane as a primary substrate to cometabolize dioxane. Duplicate abiotic controls were prepared in parallel. The propane and dioxane depletion were monitored over time by GC analysis. Now referring to FIGS. 11a and 11b, prmADBC is only partially correlated with the propane degradation but not associated with the dioxane cometabolism.

[3] = system: Azoarcus sp. DD4; details: propane as substrate
Procedure: DD4's adaptability to pH, salinity and temperature. To identify its optimum growth conditions, DD4 was cultured with propane as the substrate under different pHs, temperatures, and salinities. The pHs of NMS medium were adjusted to 4.0, 5.0, 6.0, 7.0, 8.0, 9.0 and 10.0 with appropriate amount of 1 M HCl or 1 M NaOH. The NMS mediums were cultured under 10° C., 15° C., 20° C., 25° C., 30° C., 35° C., and 40° C. The salinities of NMS medium were adjusted to 0%, 0.5%, 1.0%, 1.5%, 2.0%, 2.5%, 3.0%, and 3.5% (w/v) with NaCl. 6 mL of propane (equivalent to 6% of the head space volume) was injected into the sealed bottles in all these assays. DD4 was inoculated at the initial concentration of 0.05 measured as OD600 and cultured under 30° C., 150 rpm for 72 h while shaking. The optical density (OD) values of bacterial suspensions were determined with spectrophotometer under 600 nm.

[4] = system: Azoarcus sp. DD4; assay: Inhibition of 1,1-DCE on dioxane degradation by DD4 resting cells; assay type: cell-based; details: dioxane 20.9±0.3 mg/L and 1,1-DCE 5.0±0.4 mg/L, 24 hr
Procedure: Inhibition of 1,1-DCE on dioxane degradation by Azoarcus sp. DD4. Though DD4 can degrade both dioxane and 1,1-DCE, the effect(s) of 1,1-DCE on dioxane biodegradation was investigated. DD4 cells were harvested at the exponential growth phase and washed by NMS medium three times. Three treatments were prepared with the resting cells by the exposure of dioxane (19.7±1.2 mg/L), 1,1-DCE (5.5±0.1 mg/L), and both dioxane (20.9±0.3 mg/L) and 1,1-DCE (5.0±0.4 mg/L). Concentrations of 1,1-DCE and dioxane were monitored using GC at selected time intervals over 24 hr. Abiotic controls were treated identically. All experiments were performed in duplicate vials. […] Thus, it is very plausible that DD4 can resume its capability of degrading dioxane once 1,1-DCE is depleted by DD4.

[5] = system: Psuedonocardia dioxanivorans CB1190; details: previous studies; cited from earlier work
[6] = system: Azoarcus sp. DD4; assay: Biodegradation of concurrent dioxane and 1,1-DCE by DD4 in microcosms; assay type: cell-based; details: for effect of presence on utilization of 1-propanol and proliferation of DD4: 1-propanol as primary substrate
Procedure: Biodegradation of concurrent dioxane and 1,1-DCE by Azoarcus sp. DD4. To evaluate the performance of DD4 in removing dioxane and 1,1-DCE when both compounds are concurrently present, microcosms were prepared with DD4 inoculum in NMS medium and dosed with dioxane and 1,1-DCE. Two primary substrates were used, including propane and 1-propanol.

[7] = system: Azoarcus sp. DD4; assay: Inhibition of dioxane, 1,1-DCE and propane degradation by acetylene (DD4 resting cells); assay type: cell-based; details: resting cells pre-incubated with acetylene 10% headspace volume, 20 minutes
Procedure: Inhibition of dioxane, 1,1-DCE, and propane degradation by acetylene. Acetylene is an irreversible suicide substrate that inactivates bacterial monooxygenases (MOs). Prior S. and Dalton H, 1985. Acetylene as a suicide substrate and active site probe for methane monooxygenase from Methylococcus capsulatus (Bath). FEMS Microbiology Letters. 29, 105-109. […] After being washed with NMS three times, resting cells were pre-incubated with acetylene (10% headspace volume) for 20 minutes prior to the amendment of dioxane, 1,1-DCE, or propane. The effect of the inhibitor acetylene was studied by monitoring the depletion of dioxane, 1,1-DCE, and propane over time in the presence or absence of acetylene. Duplicate abiotic controls were prepared in parallel. The propane and dioxane depletion were monitored over time by GC analysis.

ClC=C(Cl)Cl [TCE, trichloroethene]
effect of presence on degradation of dioxane or consumption of propane for growth ([1]; DT1, BSM, propane as primary substrate): no significant inhibition

C=CCNC(N)=S [ATU, Allylthiourea]
effect on propane consumption [2]: partially inhibit

[Cl-].[Na+] [NaCl]
optimal growth parameter, NaCl ([3]; 72 h, OD600, w/v): 0-1%
NaCl concentration under which DD4 could survive and maintain growth and cometabolic activity toward dioxane ([3]; w/v): 0.0-3.0%

C=C(Cl)Cl [1,1-DCE, 1,1-dichloroethylene]
effect of presence on dioxane degradation by DD4 resting cells [4]: greatly inhibited
effect of exposure on dioxane degradation by CB1190 [5]: significantly prohibit
effect of presence on utilization of 1-propanol and proliferation of DD4 [6]: did not inhibit
effect of presence on degradation of dioxane and consumption of propane for growth ([6]; propane as primary substrate, NMS microcosm): significantly inhibited

C1COCCO1 [dioxane, 1,4-dioxane]
effect on 1,1-DCE degradation by DD4 resting cells [4]: no inhibitory effects
dioxane removed after 4 days incubation ([1]; initial 20.2 mg/L): 85%
effect of presence on utilization of 1-propanol and proliferation of DD4 [6]: did not inhibit

C#C [acetylene]
effect of exposure on degradation of propane, 1,1-DCE and dioxane [7]: completely prohibited
